This data set concerns plasmid DNA. The data set can be described thus: Dye exclusion assay (SYBR Gold) of DNA condensation by lipopeptide. The format is physicochemical. The settings on record: charge ratio 2.5:1; n=3, p<0.05; data not shown. The procedure: To determine the charge ratio at which the LP effectively condenses the DNA, a dye exclusion assay was carried out. In a 96-well black-bottomed plate, plasmid DNA (20 μg/mL) was prepared in 12 mM Tris-HCl (pH 7.4) buffer. To each well containing DNA, 0.05 μL of 10,000× concentrated stock of intercalating SYBR® Gold (Thermo Fisher Scientific) was added and the plate was incubated at room temperature for 15 minutes. The LP was then added to the wells at a series of charge ratios from 0.5:1 to 5:1. A well containing 20 μg/mL of naked DNA and SYBR® Gold was used as a 100% fluorescence intensity standard (ie no LP added). A blank well containing only the SYBR® Gold in buffer was used to subtract from the fluorescent readings of each sample. The plate was incubated at room temperature for 30 minutes for particle formation. The fluorescence (excitation 492 nm, emission 540 nm) of each sample was measured using a Wallac Envision 2102 Multilabel Reader (PerkinElmer, Waltham, Mass., United States of America).

The record followed here is patent US11446393B2, “Non-viral gene delivery agent comprising lipopeptide (LP) compounds” (MONASH UNIVERSITY, priority 2017, dated 2022).

Peptide text beside a SMILES is read from it. * marks the point of attachment. Stearoyl = CCCCCCCCCCCCCCCCCC(=O)*

On to `CCCCCCCCCCCCCCCCCC(=O)NC(CS)C(=O)NC(Cc1cnc[nH]1)C(=O)NC(Cc1cnc[nH]1)C(=O)NC(CCCCN)C(=O)NC(CCCCN)C(=O)NC(CCCCN)C(=O)O` (stereo not drawn) [stearoyl-CH2K3, stearoyl-Cys-His-His-Lys-Lys-Lys] (Stearoyl-CHHKKK-OH; configuration not given here), for which the “Fluorescence of LP/DNA particles after addition of dithiothreitol (DTT) to the LP before complexation” value is “significantly increased the degree of fluorescence”.
